According to the supplement of paper PMC10307832:

Compound: C1CC(C2=C(C1)C3=C(N2)C=CC(=C3)Cl)C(=O)N [Selisistat] + COc1cc2c(Oc3ccc(NC(=O)C4(C(=O)Nc5ccc(F)cc5)CC4)cc3F)ccnc2cc1OCCCN1CCOCC1 [Foretinib] (partner 0.25 µM)
Test: relative viability (nuclei count vs DMSO), 5 days (fraction); higher = more cells survive
Conditions: first compound 0.4 µM
Outline: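 One day after seeding in 1536-well plates, lung cancer cell lines were dosed by pin tool. Dosing was either single-drug or a fixed anchor-drug dose plus five library-drug doses (not always all listed) in √10 steps. After 5 days, nuclei were stained in one fix-and-stain step and counted on 4× images, and relative viability is the nuclei count of treated wells over that of vehicle wells, given as the median of duplicate plates.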

Row | Cell Line | relative viability
1 | NCI-H1623 | 0.963
2 | NCI-H727 | 0.883
3 | NCI-H1650 | 1.11
4 | EBC-1 | 0.111
5 | NCI-H1703 | 0.338
6 | NCI-H1993 | 0.745
7 | SW 1573 | 0.954
8 | NCI-H838 | 1.03
9 | LCLC-103H | 0.691
10 | NCI-H520 | 0.691
11 | NCI-H2126 | 1.27
12 | EMC-BAC-2 | 1.03
13 | NCI-H2085 | 0.971
14 | Calu-6 | 0.932
15 | HCC-366 | 0.837
16 | NCI-H1666 | 0.993
17 | NCI-H596 | 1.09
18 | LK-2 | 0.955
19 | NCI-H2087 | 1.09

Row | Cell Line | relative viability
20 | NCI-H2342 | 0.997
21 | SK-MES-1 | 0.908
22 | H3255 | 0.863
23 | COR-L23 | 1.08
24 | COR-L 105 | 0.984
25 | IA-LM | 1.21
26 | LOU-NH91 | 1.01
27 | ChaGo-K-1 | 0.927
28 | NCI-H2170 | 1.11
29 | NCI-H2405 | 1.06
30 | A549 | 1.04
31 | SW 900 | 0.921
32 | NCI-H2009 | 1.33
33 | NCI-H661 | 1.06
34 | SK-LU-1 | 0.883
35 | NCI-H1299 | 1.16
36 | NCI-H2228 | 0.979
37 | NCI-H2023 | 0.879
38 | NCI-H1563 | 1.05

Same assay, conditions: first compound 1.265 µM

Row | Cell Line | relative viability
39 | NCI-H1623 | 0.782
40 | NCI-H727 | 1.05
41 | NCI-H1650 | 1.03
42 | EBC-1 | 0.0934
43 | NCI-H1703 | 0.336
44 | NCI-H1993 | 0.798
45 | SW 1573 | 0.806
46 | NCI-H838 | 1.03
47 | LCLC-103H | 0.851
48 | NCI-H520 | 0.699
49 | NCI-H2126 | 1.16
50 | EMC-BAC-2 | 0.97
51 | NCI-H2085 | 0.98
52 | Calu-6 | 0.812
53 | HCC-366 | 0.892
54 | NCI-H1666 | 0.993
55 | NCI-H596 | 0.693
56 | LK-2 | 1.04
57 | NCI-H2087 | 1.12

Row | Cell Line | relative viability
58 | NCI-H2342 | 0.986
59 | SK-MES-1 | 0.762
60 | H3255 | 0.9
61 | COR-L23 | 0.981
62 | COR-L 105 | 1.15
63 | IA-LM | 1.07
64 | LOU-NH91 | 0.938
65 | ChaGo-K-1 | 0.896
66 | NCI-H2170 | 1
67 | NCI-H2405 | 1.09
68 | A549 | 0.826
69 | SW 900 | 0.778
70 | NCI-H2009 | 1.17
71 | NCI-H661 | 1.04
72 | SK-LU-1 | 0.811
73 | NCI-H1299 | 1.13
74 | NCI-H2228 | 0.931
75 | NCI-H2023 | 0.81
76 | NCI-H1563 | 0.91

Same assay, conditions: first compound 4 µM

Row | Cell Line | relative viability
77 | NCI-H1623 | 0.614
78 | NCI-H1650 | 1.02
79 | EBC-1 | 0.0874
80 | NCI-H1703 | 0.365
81 | NCI-H1993 | 0.696
82 | SW 1573 | 0.821
83 | NCI-H838 | 0.957
84 | LCLC-103H | 0.748
85 | NCI-H520 | 0.715
86 | NCI-H2126 | 1.17
87 | EMC-BAC-2 | 0.962
88 | NCI-H2085 | 0.873
89 | Calu-6 | 0.814
90 | HCC-366 | 0.755
91 | NCI-H1666 | 0.927
92 | NCI-H596 | 0.846
93 | LK-2 | 1.45

Row | Cell Line | relative viability
94 | NCI-H2342 | 0.896
95 | SK-MES-1 | 0.624
96 | H3255 | 0.837
97 | COR-L23 | 1.04
98 | IA-LM | 1.19
99 | LOU-NH91 | 0.872
100 | ChaGo-K-1 | 0.922
101 | NCI-H2170 | 0.943
102 | NCI-H2405 | 1.07
103 | A549 | 0.945
104 | SW 900 | 0.798
105 | NCI-H661 | 0.977
106 | SK-LU-1 | 0.865
107 | NCI-H1299 | 1.15
108 | NCI-H2228 | 0.685
109 | NCI-H2023 | 0.966
110 | NCI-H1563 | 0.941

Same assay, conditions: first compound 12.65 µM

Row | Cell Line | relative viability
111 | NCI-H1623 | 0.918
112 | NCI-H727 | 1.04
113 | NCI-H1650 | 0.999
114 | EBC-1 | 0.0996
115 | NCI-H1703 | 0.356
116 | NCI-H1993 | 0.949
117 | SW 1573 | 0.931
118 | NCI-H838 | 1.07
119 | LCLC-103H | 0.683
120 | NCI-H520 | 0.801
121 | NCI-H2126 | 1.32
122 | EMC-BAC-2 | 1.11
123 | NCI-H2085 | 0.881
124 | Calu-6 | 0.853
125 | HCC-366 | 0.862
126 | NCI-H1666 | 0.943
127 | NCI-H596 | 0.89
128 | LK-2 | 0.955
129 | NCI-H2087 | 1.01

Row | Cell Line | relative viability
130 | NCI-H2342 | 1.09
131 | SK-MES-1 | 0.879
132 | H3255 | 0.84
133 | COR-L23 | 1.03
134 | COR-L 105 | 1.1
135 | IA-LM | 0.902
136 | LOU-NH91 | 0.928
137 | ChaGo-K-1 | 0.857
138 | NCI-H2170 | 1.03
139 | NCI-H2405 | 1.06
140 | A549 | 0.917
141 | SW 900 | 0.955
142 | NCI-H2009 | 1.22
143 | NCI-H661 | 0.936
144 | SK-LU-1 | 0.813
145 | NCI-H1299 | 1.07
146 | NCI-H2228 | 0.843
147 | NCI-H2023 | 0.873
148 | NCI-H1563 | 0.9

Same assay, conditions: first compound 40 µM

Row | Cell Line | relative viability
149 | NCI-H1623 | 0.846
150 | NCI-H727 | 0.872
151 | NCI-H1650 | 1.18
152 | EBC-1 | 0.104
153 | NCI-H1703 | 0.313
154 | NCI-H1993 | 0.707
155 | SW 1573 | 0.929
156 | NCI-H838 | 0.962
157 | LCLC-103H | 0.805
158 | NCI-H520 | 0.746
159 | NCI-H2126 | 1.16
